Source: ChEMBL document CHEMBL1154397, “Synthesis and SAR of 4-substituted-2-aminopyrimidines as novel c-Jun N-terminal kinase (JNK) inhibitors” (Bioorg Med Chem Lett, 2009)
pIC50, pKi: −log10 of the molar value.

Legend:
[1] = molecular target: MAP kinase-activated protein kinase 2 (Homo sapiens, UniProt P49137); experiment: Inhibition of MAPKAP-K2
[2] = molecular target: Dual specificity mitogen-activated protein kinase kinase 6 (Homo sapiens, UniProt P52564); experiment: Inhibition of MKK6
[3] = molecular target: Dual specificity mitogen-activated protein kinase kinase 7 (Homo sapiens, UniProt O14733); experiment: Inhibition of MKK7beta
Chain of Dual specificity mitogen-activated protein kinase kinase 7 (O14733 whole entry): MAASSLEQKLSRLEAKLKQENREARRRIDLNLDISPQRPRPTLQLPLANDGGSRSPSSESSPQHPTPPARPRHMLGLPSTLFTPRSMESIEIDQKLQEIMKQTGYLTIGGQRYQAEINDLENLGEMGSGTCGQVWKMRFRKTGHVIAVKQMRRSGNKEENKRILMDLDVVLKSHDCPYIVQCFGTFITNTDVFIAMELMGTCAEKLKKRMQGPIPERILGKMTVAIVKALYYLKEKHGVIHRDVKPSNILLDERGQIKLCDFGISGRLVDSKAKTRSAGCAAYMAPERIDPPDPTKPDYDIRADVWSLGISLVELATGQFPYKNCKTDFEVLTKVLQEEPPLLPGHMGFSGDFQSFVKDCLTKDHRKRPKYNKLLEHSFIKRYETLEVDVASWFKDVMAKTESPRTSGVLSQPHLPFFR

[4] = molecular target: Dual specificity mitogen-activated protein kinase kinase 1 (Homo sapiens, UniProt Q02750); experiment: Inhibition of MEK1
[5] = molecular target: Mitogen-activated protein kinase 8 (Homo sapiens, UniProt P45983); experiment: Inhibition of JNK1
Chain of Mitogen-activated protein kinase 8 (P45983 whole entry): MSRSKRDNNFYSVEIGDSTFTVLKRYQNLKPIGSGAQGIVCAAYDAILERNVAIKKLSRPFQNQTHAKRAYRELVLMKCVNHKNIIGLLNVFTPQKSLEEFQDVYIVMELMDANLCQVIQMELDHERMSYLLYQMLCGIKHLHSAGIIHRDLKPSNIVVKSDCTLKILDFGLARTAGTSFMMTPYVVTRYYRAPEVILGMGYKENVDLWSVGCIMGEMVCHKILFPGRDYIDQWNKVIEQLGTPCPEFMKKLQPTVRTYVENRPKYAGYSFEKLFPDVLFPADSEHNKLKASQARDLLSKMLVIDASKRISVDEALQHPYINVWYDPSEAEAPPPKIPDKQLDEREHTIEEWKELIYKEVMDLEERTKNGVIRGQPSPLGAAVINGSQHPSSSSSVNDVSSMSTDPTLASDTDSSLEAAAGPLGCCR

Liver microsomes = experiment: Metabolic stability in human liver microsomes assessed as clearance; format: ADME, Microsome
[6] = molecular target: Protein kinase C theta type (Homo sapiens, UniProt Q04759); experiment: Inhibition of PKCtheta
[7] = molecular target: Inhibitor of nuclear factor kappa-B kinase subunit beta (Homo sapiens, UniProt O14920); experiment: Inhibition of IKKb
[8] = molecular target: Cyclin-dependent kinase 2 (Homo sapiens, UniProt P24941); experiment: Inhibition of CDK2/cyclinA
[9] = molecular target: Mitogen-activated protein kinase 13 (Homo sapiens, UniProt O15264); experiment: Inhibition of SPAK4
[10] = molecular target: Dual specificity mitogen-activated protein kinase kinase 4 (Homo sapiens, UniProt P45985); experiment: Inhibition of MKK4
Chain of Dual specificity mitogen-activated protein kinase kinase 4 (P45985 whole entry): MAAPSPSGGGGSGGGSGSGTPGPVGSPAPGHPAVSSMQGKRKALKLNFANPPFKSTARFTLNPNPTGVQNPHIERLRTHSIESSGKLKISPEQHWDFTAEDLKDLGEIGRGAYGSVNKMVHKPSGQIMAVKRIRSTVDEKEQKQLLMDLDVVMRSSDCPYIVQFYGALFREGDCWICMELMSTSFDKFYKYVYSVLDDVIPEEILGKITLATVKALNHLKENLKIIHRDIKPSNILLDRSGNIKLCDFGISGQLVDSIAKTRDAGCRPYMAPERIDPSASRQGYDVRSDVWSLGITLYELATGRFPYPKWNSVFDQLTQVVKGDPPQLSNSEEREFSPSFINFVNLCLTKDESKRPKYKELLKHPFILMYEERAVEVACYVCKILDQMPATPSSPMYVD

[11] = molecular target: Ribosomal protein S6 kinase beta-1 (Homo sapiens, UniProt P23443); experiment: Inhibition of P70s6K
Chain of Ribosomal protein S6 kinase beta-1 (P23443 whole entry): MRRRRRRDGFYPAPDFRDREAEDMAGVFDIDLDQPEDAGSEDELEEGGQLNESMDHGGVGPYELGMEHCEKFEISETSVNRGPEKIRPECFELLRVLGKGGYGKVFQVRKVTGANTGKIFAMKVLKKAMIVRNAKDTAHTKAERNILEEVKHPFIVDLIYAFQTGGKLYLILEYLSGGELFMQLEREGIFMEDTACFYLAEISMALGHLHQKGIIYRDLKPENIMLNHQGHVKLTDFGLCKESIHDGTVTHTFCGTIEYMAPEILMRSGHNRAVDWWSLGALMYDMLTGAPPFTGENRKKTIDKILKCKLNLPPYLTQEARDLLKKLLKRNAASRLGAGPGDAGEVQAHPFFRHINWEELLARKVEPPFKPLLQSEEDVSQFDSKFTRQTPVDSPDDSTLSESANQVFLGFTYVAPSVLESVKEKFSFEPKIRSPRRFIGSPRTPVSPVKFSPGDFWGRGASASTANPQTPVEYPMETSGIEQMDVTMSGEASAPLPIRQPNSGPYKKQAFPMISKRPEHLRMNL

[12] = molecular target: Mitogen-activated protein kinase 10 (Homo sapiens, UniProt P53779); experiment: Inhibition of JNK3
[13] = molecular target: Mitogen-activated protein kinase 12 (Homo sapiens, UniProt P53778); experiment: Inhibition of SAPK3
Chain of Mitogen-activated protein kinase 12 (P53778 whole entry): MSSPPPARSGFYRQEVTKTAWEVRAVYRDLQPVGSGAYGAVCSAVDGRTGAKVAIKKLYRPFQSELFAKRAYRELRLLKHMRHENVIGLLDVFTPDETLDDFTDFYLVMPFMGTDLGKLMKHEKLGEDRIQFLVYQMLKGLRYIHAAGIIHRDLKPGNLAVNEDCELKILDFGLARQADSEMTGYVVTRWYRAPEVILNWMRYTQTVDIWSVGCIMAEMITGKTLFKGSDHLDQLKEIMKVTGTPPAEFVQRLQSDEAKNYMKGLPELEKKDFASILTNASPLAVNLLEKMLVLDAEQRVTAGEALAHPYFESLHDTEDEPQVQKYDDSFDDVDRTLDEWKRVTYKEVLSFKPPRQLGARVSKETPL

[14] = molecular target: 5'-AMP-activated protein kinase catalytic subunit alpha-2 (Homo sapiens, UniProt P54646); experiment: Inhibition of AMPK
[15] = molecular target: Mitogen-activated protein kinase 14 (Homo sapiens, UniProt Q16539); experiment: Inhibition of SAPK2a
Chain of Mitogen-activated protein kinase 14 (Q16539 whole entry): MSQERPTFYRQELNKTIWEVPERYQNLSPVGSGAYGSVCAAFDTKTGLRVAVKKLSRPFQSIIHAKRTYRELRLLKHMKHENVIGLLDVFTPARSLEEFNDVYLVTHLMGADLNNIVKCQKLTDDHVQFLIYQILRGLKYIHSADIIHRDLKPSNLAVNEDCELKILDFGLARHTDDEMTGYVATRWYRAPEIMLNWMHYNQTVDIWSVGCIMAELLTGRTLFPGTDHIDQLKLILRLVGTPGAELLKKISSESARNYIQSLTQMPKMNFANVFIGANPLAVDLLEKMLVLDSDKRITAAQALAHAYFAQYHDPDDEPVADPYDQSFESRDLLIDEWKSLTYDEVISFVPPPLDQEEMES

Insulin receptor = Insulin receptor (Homo sapiens, UniProt P06213); experiment: Inhibition of IR
[16] = molecular target: Mitogen-activated protein kinase 11 (Homo sapiens) (UniProt Q15759); experiment: Inhibition of SAPK2b
[17] = molecular target: Mitogen-activated protein kinase 9 (Homo sapiens, UniProt P45984); experiment: Inhibition of to JNK2
Chain of Mitogen-activated protein kinase 9 (P45984 whole entry): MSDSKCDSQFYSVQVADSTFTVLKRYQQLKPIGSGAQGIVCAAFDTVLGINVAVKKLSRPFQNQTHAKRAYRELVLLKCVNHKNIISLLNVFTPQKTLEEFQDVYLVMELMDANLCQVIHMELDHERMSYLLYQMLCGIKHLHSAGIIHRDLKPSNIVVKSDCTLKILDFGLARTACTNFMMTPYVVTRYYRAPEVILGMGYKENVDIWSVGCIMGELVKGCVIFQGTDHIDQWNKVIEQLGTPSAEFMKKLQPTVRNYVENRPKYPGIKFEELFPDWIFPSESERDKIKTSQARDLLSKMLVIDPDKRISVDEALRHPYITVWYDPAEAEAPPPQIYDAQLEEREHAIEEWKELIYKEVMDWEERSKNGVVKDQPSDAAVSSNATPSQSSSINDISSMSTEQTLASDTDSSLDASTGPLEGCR

[18] = molecular target: Glycogen synthase kinase-3 beta (Homo sapiens, UniProt P49841); experiment: Inhibition of GSK3-beta
Chain of Glycogen synthase kinase-3 beta (P49841 whole entry): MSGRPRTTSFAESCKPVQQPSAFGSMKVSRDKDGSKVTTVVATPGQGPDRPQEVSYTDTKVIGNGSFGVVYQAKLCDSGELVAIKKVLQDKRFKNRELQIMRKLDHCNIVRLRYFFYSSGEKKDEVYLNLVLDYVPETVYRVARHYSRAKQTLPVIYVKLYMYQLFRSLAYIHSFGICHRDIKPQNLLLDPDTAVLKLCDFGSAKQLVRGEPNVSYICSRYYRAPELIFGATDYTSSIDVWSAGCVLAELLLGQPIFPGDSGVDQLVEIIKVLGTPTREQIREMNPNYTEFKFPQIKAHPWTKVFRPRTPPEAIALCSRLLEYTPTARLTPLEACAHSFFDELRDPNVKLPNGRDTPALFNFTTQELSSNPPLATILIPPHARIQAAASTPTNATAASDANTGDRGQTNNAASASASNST

[19] = Lipophilicity, log D of the compound; format: physicochemical; settings: octanol/water
[20] = molecular target: c-Jun N-terminal kinase, JNK (Homo sapiens, UniProt P45983+P53779+P45984); experiment: Inhibition of TNF-alpha-induced phosphorylation of […] in human HepG2 cells; format: cell-based
[21] = molecular target: Voltage-gated inwardly rectifying potassium channel KCNH2 (Homo sapiens, UniProt Q12809); experiment: Binding affinity to human ERG
Chain of Voltage-gated inwardly rectifying potassium channel KCNH2 (Q12809 whole entry): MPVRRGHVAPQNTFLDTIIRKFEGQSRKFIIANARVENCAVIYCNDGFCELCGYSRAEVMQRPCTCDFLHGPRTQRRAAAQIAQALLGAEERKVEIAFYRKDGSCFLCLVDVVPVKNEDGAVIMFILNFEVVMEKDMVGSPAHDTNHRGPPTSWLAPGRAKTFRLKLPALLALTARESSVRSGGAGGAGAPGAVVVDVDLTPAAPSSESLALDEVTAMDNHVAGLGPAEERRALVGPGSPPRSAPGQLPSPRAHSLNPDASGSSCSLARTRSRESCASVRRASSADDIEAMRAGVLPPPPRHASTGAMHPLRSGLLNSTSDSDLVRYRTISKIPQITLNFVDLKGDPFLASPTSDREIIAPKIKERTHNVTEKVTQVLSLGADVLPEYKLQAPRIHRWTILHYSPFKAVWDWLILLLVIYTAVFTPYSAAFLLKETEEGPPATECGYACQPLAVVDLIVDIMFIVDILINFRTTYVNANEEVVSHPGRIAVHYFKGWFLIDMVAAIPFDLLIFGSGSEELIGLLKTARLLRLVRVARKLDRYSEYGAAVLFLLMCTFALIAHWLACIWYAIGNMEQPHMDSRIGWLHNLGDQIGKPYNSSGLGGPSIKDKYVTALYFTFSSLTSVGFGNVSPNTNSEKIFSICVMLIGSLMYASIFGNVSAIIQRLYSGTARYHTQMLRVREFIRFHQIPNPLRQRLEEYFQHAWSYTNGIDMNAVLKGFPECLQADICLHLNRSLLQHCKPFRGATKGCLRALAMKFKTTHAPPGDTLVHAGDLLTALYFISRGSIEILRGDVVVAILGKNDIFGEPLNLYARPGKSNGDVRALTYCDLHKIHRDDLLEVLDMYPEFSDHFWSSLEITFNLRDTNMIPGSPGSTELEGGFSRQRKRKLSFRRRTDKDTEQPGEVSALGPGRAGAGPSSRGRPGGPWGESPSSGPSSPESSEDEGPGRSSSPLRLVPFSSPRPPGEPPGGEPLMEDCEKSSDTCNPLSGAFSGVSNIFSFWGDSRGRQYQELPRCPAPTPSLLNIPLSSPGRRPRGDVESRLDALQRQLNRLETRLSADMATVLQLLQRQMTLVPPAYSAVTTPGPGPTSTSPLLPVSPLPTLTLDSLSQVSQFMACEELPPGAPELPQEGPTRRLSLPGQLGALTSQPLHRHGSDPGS

[22] = Selectivity ratio of IC50 for p38MAPKgamma to IC50 for JNK1
[23] = Selectivity ratio of IC50 for p38MAPKbeta to IC50 for JNK1
[24] = Metabolic stability in rat liver microsomes assessed as clearance; format: ADME, Microsome
[25] = Permeability from apical to basolateral side of human Caco-2 cells; format: ADME, cell-based; settings: read-out: permeability
[26] = Permeability from basolateral to apical side of human Caco-2 cells; format: ADME, cell-based; settings: read-out: permeability

Chain of MAP kinase-activated protein kinase 2 (P49137 whole entry): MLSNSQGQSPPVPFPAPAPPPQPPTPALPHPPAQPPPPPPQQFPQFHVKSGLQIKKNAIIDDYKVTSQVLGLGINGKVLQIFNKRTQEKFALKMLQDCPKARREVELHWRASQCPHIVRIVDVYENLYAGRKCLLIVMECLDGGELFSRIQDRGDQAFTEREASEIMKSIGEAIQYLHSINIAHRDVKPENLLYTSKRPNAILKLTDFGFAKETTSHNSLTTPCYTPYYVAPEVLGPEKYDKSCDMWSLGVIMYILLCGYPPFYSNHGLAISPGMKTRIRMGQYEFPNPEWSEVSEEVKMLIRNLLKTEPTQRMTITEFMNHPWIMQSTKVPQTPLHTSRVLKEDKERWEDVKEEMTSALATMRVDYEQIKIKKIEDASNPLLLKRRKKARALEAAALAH

pKi [5] | microsomal CLint (Liver microsomes) | IC50 [20] | Structure (SMILES) | further results
7.92 | < 15 µL/min/mg | – | O[C@H]1CC[C@H](c2[nH]ncc2-c2ccnc(NC3CCCC3)n2)CC1 | pIC50 [1]: < 4.52; pIC50 [2]: 4.82; pIC50 [3]: 6.07; pIC50 [4]: < 4.52; pIC50 [6]: < 4.52; pIC50 [7]: 4.89; pIC50 [8]: 6.23; pIC50 [9]: 5.92; pIC50 [10]: 6.04; pIC50 [11]: < 4.52; pKi [12]: 7.80; pIC50 [13]: 5.21; pIC50 [14]: < 4.52; pIC50 [15]: < 4.52; pIC50 (Insulin receptor): < 4.52; pIC50 [16]: 4.82; pKi [17]: 7.77; pIC50 [18]: 5.72
7.59 | 116 µL/min/mg | 460 nM | Clc1ccc(-c2n[nH]cc2-c2ccnc(NC3CCCC3)n2)cc1 | logD [19]: 4.42
6.77 | 18 µL/min/mg | 814 nM | CC(C)Nc1nccc(-c2c[nH]nc2C2CCOCC2)n1 | –
5.80 | 14 µL/min/mg | – | CN1CCC(Nc2nccc(-c3c[nH]nc3-c3ccc(Cl)cc3)n2)CC1 | pKi [21]: 5.99
7.32 | 106 µL/min/mg | 920 nM | CC(C)Nc1nccc(-c2c[nH]nc2-c2ccc(Cl)cc2)n1 | –
8.05 | 11 µL/min/mg | 114 nM | CS(=O)(=O)N[C@H]1CC[C@H](c2n[nH]cc2-c2ccnc(NC3CCCC3)n2)CC1 | –
5.56 | 21 µL/min/mg | – | CC(C)Nc1nccc(-c2cn[nH]c2)n1 | –
6.42 | 21 µL/min/mg | 3500 nM | CC(C)Nc1nccc(-c2cn[nH]c2C2CCCCO2)n1 (configuration not stated) | –
7.57 | 156 µL/min/mg | 1100 nM | Clc1ccc(-c2n[nH]cc2-c2ccnc(NC3CCCCC3)n2)cc1 | –
5.69 | – | – | Cc1ccnc(S)n1 | –
– | – | 98 nM | O[C@H]1CC[C@H](c2n[nH]cc2-c2ccnc(NC3CCCC3)n2)CC1 | Activity [22]: 100; Activity [23]: 100
7.00 | 12 µL/min/mg | 221 nM | CC(C)Nc1nccc(-c2cn[nH]c2C2CCN(S(C)(=O)=O)CC2)n1 | microsomal CLint [24]: 52 µL/min/mg
6.82 | 96 µL/min/mg | 840 nM | Clc1ccc(-c2n[nH]cc2-c2ccnc(NC3CC3)n2)cc1 | –
6.50 | < 6 µL/min/mg | – | C[C@H](CC(=O)O)Nc1nccc(-c2c[nH]nc2-c2ccc(Cl)cc2)n1 | Papp A→B [25]: 0.3 ×10⁻⁶ cm/s; Papp B→A [26]: 13.2 ×10⁻⁶ cm/s
6.79 | 61 µL/min/mg | 6020 nM | Cc1ccc(-c2n[nH]cc2-c2ccnc(NC3CCN(C)CC3)n2)cn1 | –
6.28 | 14 µL/min/mg | – | CC(C)Nc1nccc(-c2cn[nH]c2C2CCCNC2)n1 (configuration not stated) | –
7.55 | < 8 µL/min/mg | 299 nM | CC(=O)N[C@H]1CC[C@H](c2n[nH]cc2-c2ccnc(NC3CCCC3)n2)CC1 | –
7.44 | 15 µL/min/mg | 209 nM | OC1CCCC(c2n[nH]cc2-c2ccnc(NC3CCCC3)n2)C1 (configuration not stated) | –
7.37 | 34 µL/min/mg | 357 nM | CC(C)Nc1nccc(-c2c[nH]nc2C2CCCOC2)n1 (configuration not stated) | microsomal CLint [24]: 18 µL/min/mg
7.92 | 89 µL/min/mg | 245 nM | c1cc(-c2cn[nH]c2C2CCCOC2)nc(NC2CCCC2)n1 (configuration not stated) | –
